# In ChEMBL document CHEMBL3994582, “A2B adenosine receptor antagonists: Design, synthesis and biological evaluation of novel xanthine derivatives” (Eur J Med Chem, 2017):
# Target: T1, Adenosine receptor A2b (Homo sapiens, UniProt P29275)
# T1 sequence (P29275 whole entry): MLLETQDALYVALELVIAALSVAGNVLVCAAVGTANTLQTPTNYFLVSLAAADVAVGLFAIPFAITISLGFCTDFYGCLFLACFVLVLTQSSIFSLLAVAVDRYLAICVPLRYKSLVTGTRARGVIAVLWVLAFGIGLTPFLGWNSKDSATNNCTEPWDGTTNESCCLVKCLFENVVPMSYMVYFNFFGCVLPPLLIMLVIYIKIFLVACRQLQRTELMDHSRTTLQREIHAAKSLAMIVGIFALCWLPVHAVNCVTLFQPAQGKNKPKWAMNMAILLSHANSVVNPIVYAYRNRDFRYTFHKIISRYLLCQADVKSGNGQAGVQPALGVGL
# Experiment: Displacement of [3H]-MRS-1754 from human adenosine receptor A2b expressed in HEK293 cell membranes after 90 mins by liquid scintillation counting method
# Conditions: not given
row,Structure (SMILES),Ki [nM]
1,CCCn1c(=O)c2[nH]c(-c3cnn(CC4CC(=O)N(c5ccc(OC)cc5)C4)c3)nc2n(CCC)c1=O (configuration not stated),9
2,CCCn1c(=O)c2[nH]c(-c3cnn(CC4CCN(c5ccc(OC)cc5)C4)c3)nc2n(CCC)c1=O (configuration not stated),13
3,CCCn1c(=O)c2[nH]c(-c3cnn(CC4CCN(c5cccc(C(F)(F)F)c5)C4=O)c3)nc2n(CCC)c1=O (configuration not stated),6
4,CCCn1c(=O)c2[nH]c(-c3cnn(CC4CCN(c5ccc(C)cc5)C4)c3)nc2n(CCC)c1=O (configuration not stated),12
5,CCCn1c(=O)c2[nH]c(-c3cnn(CC4CC(=O)N(c5cccc(OC(F)(F)F)c5)C4)c3)nc2n(CCC)c1=O (configuration not stated),9
6,CCCn1c(=O)c2[nH]c(-c3cnn(CC4CC(=O)N(c5ccc(OC(F)(F)F)cc5)C4)c3)nc2n(CCC)c1=O (configuration not stated),4
7,CCCn1c(=O)c2[nH]c(-c3cnn(CCC4CC(=O)N(c5cccc(C(F)(F)F)c5)C4)c3)nc2n(CCC)c1=O (configuration not stated),2.6
8,CCCn1c(=O)c2[nH]c(-c3cnn(CC4CCN(c5cccc(F)c5)C4=O)c3)nc2n(CCC)c1=O (configuration not stated),43
9,CCCn1c(=O)c2[nH]c(-c3cnn(CC4CC(=O)N(c5ccc(C(=O)O)cc5)C4)c3)nc2n(CCC)c1=O (configuration not stated),77
10,CCCn1c(=O)c2[nH]c(-c3cnn(CC(O)C4CC(=O)N(c5cccc(C(F)(F)F)c5)C4)c3)nc2n(CCC)c1=O (configuration not stated),1.2
11,CCCn1c(=O)c2[nH]c(-c3cnn(CC(=O)N4CCN(c5ccc(C(F)(F)F)cc5)CC4)c3)nc2n(CCC)c1=O,0.9
12,CCCn1c(=O)c2[nH]c(-c3cc(OCC4CC(=O)N(c5cccc(C(F)(F)F)c5)C4)no3)nc2n(CCC)c1=O (configuration not stated),69
13,CCCn1c(=O)c2[nH]c(-c3cnn(CC(=O)N4CCN(c5ccc(C)cc5)CC4)c3)nc2n(CCC)c1=O,5

# Target: T2, Adenosine receptor A1 (Homo sapiens) (UniProt P30542)
# T2 sequence (whole entry): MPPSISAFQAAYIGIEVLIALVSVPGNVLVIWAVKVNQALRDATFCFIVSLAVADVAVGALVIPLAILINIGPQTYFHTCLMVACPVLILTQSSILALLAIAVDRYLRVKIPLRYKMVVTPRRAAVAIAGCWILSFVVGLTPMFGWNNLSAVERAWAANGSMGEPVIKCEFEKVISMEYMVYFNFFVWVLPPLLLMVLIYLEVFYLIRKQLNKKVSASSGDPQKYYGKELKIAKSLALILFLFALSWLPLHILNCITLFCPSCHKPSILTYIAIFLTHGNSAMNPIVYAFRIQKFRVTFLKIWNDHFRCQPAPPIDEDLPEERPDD
# Experiment: Displacement of [3H]DPCPX from human adenosine receptor A1 expressed in HEK293 cell membranes at 0.1 uM after 90 mins by liquid scintillation counting method relative to control
# Conditions: not given
row,Structure (SMILES),inhibition [%]
1,CCCn1c(=O)c2[nH]c(-c3cnn(CC4CC(=O)N(c5ccc(OC)cc5)C4)c3)nc2n(CCC)c1=O (configuration not stated),38
2,CCCn1c(=O)c2[nH]c(-c3cnn(CC4CCN(c5ccc(OC)cc5)C4)c3)nc2n(CCC)c1=O (configuration not stated),21
3,CCCn1c(=O)c2[nH]c(-c3cnn(CC4CCN(c5cccc(C(F)(F)F)c5)C4=O)c3)nc2n(CCC)c1=O (configuration not stated),58
4,CCCn1c(=O)c2[nH]c(-c3cnn(CC4CCN(c5ccc(C)cc5)C4)c3)nc2n(CCC)c1=O (configuration not stated),26
5,CCCn1c(=O)c2[nH]c(-c3cnn(CC4CC(=O)N(c5cccc(OC(F)(F)F)c5)C4)c3)nc2n(CCC)c1=O (configuration not stated),20
6,CCCn1c(=O)c2[nH]c(-c3cnn(CC4CC(=O)N(c5ccc(OC(F)(F)F)cc5)C4)c3)nc2n(CCC)c1=O (configuration not stated),23
7,CCCn1c(=O)c2[nH]c(-c3cnn(CCC4CC(=O)N(c5cccc(C(F)(F)F)c5)C4)c3)nc2n(CCC)c1=O (configuration not stated),40
8,CCCn1c(=O)c2[nH]c(-c3cnn(CC(O)C4CC(=O)N(c5cccc(C(F)(F)F)c5)C4)c3)nc2n(CCC)c1=O (configuration not stated),12
9,CCCn1c(=O)c2[nH]c(-c3cnn(CC(=O)N4CCN(c5ccc(C(F)(F)F)cc5)CC4)c3)nc2n(CCC)c1=O,53
10,CCCn1c(=O)c2[nH]c(-c3cc(OCC4CC(=O)N(c5cccc(C(F)(F)F)c5)C4)no3)nc2n(CCC)c1=O (configuration not stated),0
11,CCCn1c(=O)c2[nH]c(-c3cnn(CC(=O)N4CCN(c5ccc(C)cc5)CC4)c3)nc2n(CCC)c1=O,58

# Target: Adenosine receptor A2a (Homo sapiens, UniProt P29274)
# Sequence (P29274 whole entry): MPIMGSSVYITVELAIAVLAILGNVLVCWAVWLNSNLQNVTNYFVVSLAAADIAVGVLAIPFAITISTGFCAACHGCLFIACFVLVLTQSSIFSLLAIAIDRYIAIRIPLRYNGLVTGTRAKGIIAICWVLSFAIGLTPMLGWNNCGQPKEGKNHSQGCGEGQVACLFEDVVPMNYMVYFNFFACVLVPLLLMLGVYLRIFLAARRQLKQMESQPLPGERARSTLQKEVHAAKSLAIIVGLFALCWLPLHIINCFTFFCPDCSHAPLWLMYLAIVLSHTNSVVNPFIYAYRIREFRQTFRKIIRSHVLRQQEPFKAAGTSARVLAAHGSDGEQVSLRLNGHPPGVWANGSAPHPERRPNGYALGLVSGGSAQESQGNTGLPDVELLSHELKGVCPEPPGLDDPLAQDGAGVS
# Experiment: Displacement of [3H]-ZM-241385 from human adenosine receptor A2a expressed in HEK293 cell membranes at 0.1 uM after 90 mins by liquid scintillation counting method relative to control
# Conditions: not given
row,Structure (SMILES),inhibition [%]
1,CCCn1c(=O)c2[nH]c(-c3cnn(CC4CC(=O)N(c5ccc(OC)cc5)C4)c3)nc2n(CCC)c1=O (configuration not stated),51
2,CCCn1c(=O)c2[nH]c(-c3cnn(CC4CCN(c5ccc(OC)cc5)C4)c3)nc2n(CCC)c1=O (configuration not stated),53
3,CCCn1c(=O)c2[nH]c(-c3cnn(CC4CCN(c5cccc(C(F)(F)F)c5)C4=O)c3)nc2n(CCC)c1=O (configuration not stated),30
4,CCCn1c(=O)c2[nH]c(-c3cnn(CC4CCN(c5ccc(C)cc5)C4)c3)nc2n(CCC)c1=O (configuration not stated),51
5,CCCn1c(=O)c2[nH]c(-c3cnn(CC4CC(=O)N(c5cccc(OC(F)(F)F)c5)C4)c3)nc2n(CCC)c1=O (configuration not stated),49
6,CCCn1c(=O)c2[nH]c(-c3cnn(CC4CC(=O)N(c5ccc(OC(F)(F)F)cc5)C4)c3)nc2n(CCC)c1=O (configuration not stated),24
7,CCCn1c(=O)c2[nH]c(-c3cnn(CCC4CC(=O)N(c5cccc(C(F)(F)F)c5)C4)c3)nc2n(CCC)c1=O (configuration not stated),65
8,CCCn1c(=O)c2[nH]c(-c3cnn(CC(O)C4CC(=O)N(c5cccc(C(F)(F)F)c5)C4)c3)nc2n(CCC)c1=O (configuration not stated),60
9,CCCn1c(=O)c2[nH]c(-c3cnn(CC(=O)N4CCN(c5ccc(C(F)(F)F)cc5)CC4)c3)nc2n(CCC)c1=O,71
10,CCCn1c(=O)c2[nH]c(-c3cc(OCC4CC(=O)N(c5cccc(C(F)(F)F)c5)C4)no3)nc2n(CCC)c1=O (configuration not stated),0
11,CCCn1c(=O)c2[nH]c(-c3cnn(CC(=O)N4CCN(c5ccc(C)cc5)CC4)c3)nc2n(CCC)c1=O,58

# Target: T3, Adenosine receptor A3 (Homo sapiens) (UniProt P0DMS8)
# T3 sequence (whole entry): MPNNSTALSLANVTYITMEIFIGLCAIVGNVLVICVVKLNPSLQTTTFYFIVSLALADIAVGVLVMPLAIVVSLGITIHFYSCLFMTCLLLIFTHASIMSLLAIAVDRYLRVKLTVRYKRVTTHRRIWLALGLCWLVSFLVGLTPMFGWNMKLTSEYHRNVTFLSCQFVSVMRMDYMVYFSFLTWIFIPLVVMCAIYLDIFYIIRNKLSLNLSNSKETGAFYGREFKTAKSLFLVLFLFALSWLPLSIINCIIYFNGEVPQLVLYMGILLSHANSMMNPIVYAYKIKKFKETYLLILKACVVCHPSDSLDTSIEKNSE
# Experiment: Displacement of [3H]-HEM-ADO from human adenosine receptor A3 expressed in HEK293 cell membranes at 1 uM after 90 mins by liquid scintillation counting method relative to control
# Conditions: not given
row,Structure (SMILES),inhibition [%]
1,CCCn1c(=O)c2[nH]c(-c3cnn(CC4CC(=O)N(c5ccc(OC)cc5)C4)c3)nc2n(CCC)c1=O (configuration not stated),27
2,CCCn1c(=O)c2[nH]c(-c3cnn(CC4CCN(c5ccc(OC)cc5)C4)c3)nc2n(CCC)c1=O (configuration not stated),3
3,CCCn1c(=O)c2[nH]c(-c3cnn(CC4CCN(c5cccc(C(F)(F)F)c5)C4=O)c3)nc2n(CCC)c1=O (configuration not stated),17
4,CCCn1c(=O)c2[nH]c(-c3cnn(CC4CCN(c5ccc(C)cc5)C4)c3)nc2n(CCC)c1=O (configuration not stated),2
5,CCCn1c(=O)c2[nH]c(-c3cnn(CC4CC(=O)N(c5cccc(OC(F)(F)F)c5)C4)c3)nc2n(CCC)c1=O (configuration not stated),0
6,CCCn1c(=O)c2[nH]c(-c3cnn(CC4CC(=O)N(c5ccc(OC(F)(F)F)cc5)C4)c3)nc2n(CCC)c1=O (configuration not stated),0
7,CCCn1c(=O)c2[nH]c(-c3cnn(CCC4CC(=O)N(c5cccc(C(F)(F)F)c5)C4)c3)nc2n(CCC)c1=O (configuration not stated),29
8,CCCn1c(=O)c2[nH]c(-c3cnn(CC(O)C4CC(=O)N(c5cccc(C(F)(F)F)c5)C4)c3)nc2n(CCC)c1=O (configuration not stated),27
9,CCCn1c(=O)c2[nH]c(-c3cnn(CC(=O)N4CCN(c5ccc(C(F)(F)F)cc5)CC4)c3)nc2n(CCC)c1=O,11
10,CCCn1c(=O)c2[nH]c(-c3cc(OCC4CC(=O)N(c5cccc(C(F)(F)F)c5)C4)no3)nc2n(CCC)c1=O (configuration not stated),5
11,CCCn1c(=O)c2[nH]c(-c3cnn(CC(=O)N4CCN(c5ccc(C)cc5)CC4)c3)nc2n(CCC)c1=O,11

# System: Liver
# Experiment: Metabolic stability in mouse liver microsomes assessed as metabolic rate per mg protein preincubated for 5 mins followed by NADPH addition measured up to 30 mins by LC-MS/MS analysis
# Type: ADME, microsome
# Conditions: 0.5 h
row,Structure (SMILES),Drug metabolism [nmol/min/mg]
1,CCCn1c(=O)c2[nH]c(-c3cnn(CC4CC(=O)N(c5ccc(OC)cc5)C4)c3)nc2n(CCC)c1=O (configuration not stated),0.22
2,CCCn1c(=O)c2[nH]c(-c3cnn(CC4CCN(c5ccc(OC)cc5)C4)c3)nc2n(CCC)c1=O (configuration not stated),0.43
3,CCCn1c(=O)c2[nH]c(-c3cnn(CC4CCN(c5cccc(C(F)(F)F)c5)C4=O)c3)nc2n(CCC)c1=O (configuration not stated),0.34
4,CCCn1c(=O)c2[nH]c(-c3cnn(CC4CCN(c5ccc(C)cc5)C4)c3)nc2n(CCC)c1=O (configuration not stated),0.38
5,CCCn1c(=O)c2[nH]c(-c3cnn(CC4CC(=O)N(c5cccc(OC(F)(F)F)c5)C4)c3)nc2n(CCC)c1=O (configuration not stated),0.57
6,CCCn1c(=O)c2[nH]c(-c3cnn(CC4CC(=O)N(c5ccc(OC(F)(F)F)cc5)C4)c3)nc2n(CCC)c1=O (configuration not stated),0.24
7,CCCn1c(=O)c2[nH]c(-c3cnn(CCC4CC(=O)N(c5cccc(C(F)(F)F)c5)C4)c3)nc2n(CCC)c1=O (configuration not stated),0.3
8,CCCn1c(=O)c2[nH]c(-c3cnn(CC(O)C4CC(=O)N(c5cccc(C(F)(F)F)c5)C4)c3)nc2n(CCC)c1=O (configuration not stated),0.22

# System: Liver
# Experiment: Metabolic stability in human liver microsomes assessed as metabolic rate per mg protein preincubated for 5 mins followed by NADPH addition measured up to 30 mins by LC-MS/MS analysis
# Type: ADME, microsome
# Conditions: 0.5 h
row,Structure (SMILES),Drug metabolism [nmol/min/mg]
1,CCCn1c(=O)c2[nH]c(-c3cnn(CC4CC(=O)N(c5ccc(OC)cc5)C4)c3)nc2n(CCC)c1=O (configuration not stated),0.19
2,CCCn1c(=O)c2[nH]c(-c3cnn(CC4CCN(c5ccc(OC)cc5)C4)c3)nc2n(CCC)c1=O (configuration not stated),0.37
3,CCCn1c(=O)c2[nH]c(-c3cnn(CC4CCN(c5cccc(C(F)(F)F)c5)C4=O)c3)nc2n(CCC)c1=O (configuration not stated),0.2
4,CCCn1c(=O)c2[nH]c(-c3cnn(CC4CCN(c5ccc(C)cc5)C4)c3)nc2n(CCC)c1=O (configuration not stated),0.66
5,CCCn1c(=O)c2[nH]c(-c3cnn(CC4CC(=O)N(c5cccc(OC(F)(F)F)c5)C4)c3)nc2n(CCC)c1=O (configuration not stated),0.23
6,CCCn1c(=O)c2[nH]c(-c3cnn(CC4CC(=O)N(c5ccc(OC(F)(F)F)cc5)C4)c3)nc2n(CCC)c1=O (configuration not stated),0.13
7,CCCn1c(=O)c2[nH]c(-c3cnn(CCC4CC(=O)N(c5cccc(C(F)(F)F)c5)C4)c3)nc2n(CCC)c1=O (configuration not stated),0.14
8,CCCn1c(=O)c2[nH]c(-c3cnn(CC(O)C4CC(=O)N(c5cccc(C(F)(F)F)c5)C4)c3)nc2n(CCC)c1=O (configuration not stated),0.19
